Laboratory results: article PMC4467156, “A new chemical inhibitor of angiogenesis and tumorigenesis that targets the VEGF signaling pathway upstream of Ras” (Oncotarget, 2015)

Tests used:
ERK phosphorylation = ERK phosphorylation in CCL-39 fibroblasts with estrogen-responsive active Raf; assay type: cell-based; details: estradiol 3 h, 25 μM COB223 15 or 30 min
Experimental: (§1) Figure 11 Effect of COB223 on mitogenic or oncogenic activation of the Ras /MEK/ERK signaling pathway (A) Serum-starved HUVEC cells were incubated for 15 min in the presence of 10 ng/mL VEGF-A and in the absence or the presence of 25 μM COB223. The phosphorylations of PLCγ on tyrosine 783, of Raf on serine 338 or on serine 259 and of ERK1/2 were then analyzed by Western blot analysis of the cell lysates as described in Material and Methods. Western blots for total PLCγ, Raf and ERK1/2 were used as loading controls. (B) MCF10A cells overexpressing an oncogenic version of Ras (MCF10A-RasG12V) were treated for the indicated periods of time by 25 μM COB223. Total ERK1/2 and phospho-ERK1/2 were then visualized by Western blotting of the cell extracts. Non-treated regular MCF10A cells were analyzed as a control (first lane). (C) CCL-39 fibroblasts expressing a constitutively active Raf in an estrogen-responsive manner were stimulated for 3 h with estradiol and treated for 15 or 30 min with 25 μM COB223. Total ERK1/2 and phospho-ERK1/2 were then visualized by Western blotting of the cell extracts. Non-treated cells were analyzed as a control (left lanes).

HUVEC cells [1] = assay: Boyden chamber cell migration assay; assay type: cell-based, human; details: 25 μM COB223 in upper chamber
Experimental: The assay was performed using 24-multiwell plates and individual cell culture inserts bearing a porous (size of pores: 3 μm) and dyed bottom membrane, which were purchased from BD (FluoroBlok^TM). HUVEC cells were rendered fluorescent by incubation for 24 h in the presence of 5 μg/ml of Di-I (1,1′-dioctadecyl-3,3,3′3′-tetramethylindocarbocyanine perchlorate) and subsequently seeded (5 × 10^4 cells/insert) in the upper chambers (inserts) in serum-free culture medium supplemented with 25 μM COB223 or with vehicle (DMSO). Serum supplemented medium (5% FCS) was placed in the lower chambers (plate wells). After incubation for 4 h or 24 h at 37°C, the fluorescence of cells that had passed through the dyed membrane was measured on a plate reader at 540 nm/570 nm excitation/emission wavelengths. […]
Figure S1: Effect of COB223 on endothelial cell migration. […] Wound closure was measured after 24 h and 48 h of incubation as described in Material and Methods. […]
(B) Boyden chamber assay: The technique is described in Material and Methods. We measured the passage of fluorescently labeled HUVEC cells through a 3 μm-porous membrane in response to fetal calf serum used as a chemo-attractant. […] The Figure represents the mean fluorescence ± SD of duplicate determinations after 24 h or 48h of incubation from two independent experiments. […]

HMVECd cells = assay: Scratch wound closure assay, primary HMVECd; assay type: cell-based; details: Homo sapiens, Endothelial cell; primary dermal microvascular endothelial cells, 10% FCS
Experimental: Figure 3 Endothelial cell-specific inhibition of wound closure by COB223 The dose-dependent effect of COB223 on cellular wound closure was measured as described in Material and Methods on either HMVECd or on 3T3 cells. The results are expressed as the percentage of wound closure (with closure observed in the presence of 10% FCS taken as 100%) : mean values +/− SD from three experiments.
Confluent cell monolayers were wounded with a plastic pipet tip, washed gently with phosphate buffer saline (PBS) and treated with complete media containing molecules, as indicated. Cells were placed at 37°C into the incubator and photographed at indicated times. Quantitation of closure of the monolayer was performed using the NIH Image J program (http://rsbweb.nih.gov/ij/). Results are expressed as percentage of wound closure at t = 24 h as compared to the initial wound at t = 0 h.

3T3 cells = assay: 3H-thymidine incorporation, 3T3; assay type: cell-based; details: 3T3 fibroblasts
Experimental: Cells were treated with molecules in complete medium. After 22 h, 1 μCi per well H^3 thymidine was added for 2 hours. Cells are then fixed by 10% trichloroacetic acid and harvested with 0.2N NaOH, 1% SDS. Radioactivity was measured in a beta counter.

ERK1/2 phosphorylation = ERK1/2 phosphorylation in MCF-10A cells expressing oncogenic RasG12V; assay type: cell-based; details: 25 μM COB223
Experimental: as §1

HUVEC cells [2] = assay: Cell viability WST-1, HUVEC; assay type: cell-based, human; details: confluent HUVEC, 24 h at 37°C
Experimental: Once they had reached confluency, cells were kept for 24 hours in medium supplemented with 0.5% FCS (LLC/2 and 3T3 cells) or 2.5% FCS (HUVEC and HMVEC-d cells), in the presence of COB223 at different concentrations. WST-1 assay (Roche Diagnostic, Meylan, France) was then performed according to the manufacturer's instructions.

VEGFR2 (KDR) = VEGFR2 (KDR) (Homo sapiens, UniProt P35968); assay: In vitro kinase assay VEGFR2; assay type: biochemical; details: concentrations up to 50 μM
VEGFR2 (KDR), sequence (P35968 20-1356, species assumed): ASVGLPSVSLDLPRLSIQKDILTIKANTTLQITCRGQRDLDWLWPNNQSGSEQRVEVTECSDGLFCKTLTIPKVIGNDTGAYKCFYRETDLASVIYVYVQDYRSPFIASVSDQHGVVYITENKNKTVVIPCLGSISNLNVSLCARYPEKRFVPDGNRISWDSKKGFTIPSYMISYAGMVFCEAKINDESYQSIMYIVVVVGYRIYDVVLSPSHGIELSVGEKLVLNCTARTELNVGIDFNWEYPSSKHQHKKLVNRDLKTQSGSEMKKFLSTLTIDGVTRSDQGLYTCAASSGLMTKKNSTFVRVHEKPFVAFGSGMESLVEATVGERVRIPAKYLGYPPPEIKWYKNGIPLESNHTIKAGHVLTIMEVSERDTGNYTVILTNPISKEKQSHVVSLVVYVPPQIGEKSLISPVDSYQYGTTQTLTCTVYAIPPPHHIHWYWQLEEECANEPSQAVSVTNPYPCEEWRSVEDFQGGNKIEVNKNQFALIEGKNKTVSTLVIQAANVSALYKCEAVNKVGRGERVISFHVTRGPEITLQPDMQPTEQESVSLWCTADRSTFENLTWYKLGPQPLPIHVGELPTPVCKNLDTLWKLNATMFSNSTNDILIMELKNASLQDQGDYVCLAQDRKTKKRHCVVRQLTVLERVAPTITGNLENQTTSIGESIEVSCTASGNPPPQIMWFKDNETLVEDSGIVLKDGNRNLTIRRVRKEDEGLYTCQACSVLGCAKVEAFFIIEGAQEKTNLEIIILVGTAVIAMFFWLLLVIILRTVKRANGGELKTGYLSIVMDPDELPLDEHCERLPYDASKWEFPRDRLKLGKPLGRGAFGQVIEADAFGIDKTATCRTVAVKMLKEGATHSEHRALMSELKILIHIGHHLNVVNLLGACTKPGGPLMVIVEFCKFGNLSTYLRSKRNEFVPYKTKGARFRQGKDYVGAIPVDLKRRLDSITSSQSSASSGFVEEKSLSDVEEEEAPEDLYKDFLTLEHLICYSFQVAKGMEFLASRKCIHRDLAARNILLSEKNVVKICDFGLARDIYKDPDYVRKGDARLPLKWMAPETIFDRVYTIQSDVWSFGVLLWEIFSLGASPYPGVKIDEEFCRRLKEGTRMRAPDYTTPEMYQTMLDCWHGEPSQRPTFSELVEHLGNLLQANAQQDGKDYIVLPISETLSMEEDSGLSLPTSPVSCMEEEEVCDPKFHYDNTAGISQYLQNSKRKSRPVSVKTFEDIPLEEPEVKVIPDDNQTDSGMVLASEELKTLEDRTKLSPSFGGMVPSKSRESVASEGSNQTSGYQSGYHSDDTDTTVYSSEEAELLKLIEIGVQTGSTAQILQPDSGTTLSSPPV
Experimental: We first wondered whether COB223 required to be internalized to exert its biological effect. For this, we synthesized a covalent complex between BSA and COB223 and purified it. […] In vitro kinase assays were performed with a panel of purified protein-kinases involved in mitogenic signaling, including VEGFR2, FGFR1, FGFR2, PDGFRß, Met, Raf, MEK1, ERK1, ERK2, PKCα, PKCβI, PKCβII, PKCζ as indicated in Table 2. […] We then analyzed the effect of COB223 on VEGF-induced phosphorylations of VEGFR2, MEK and ERK1/2 (Figure 9). […] (Figure 9A, 9B). […] It was also specific of the p42/p44 MAP kinase pathway as activation of p38 MAP kinase phosphorylation in HUVEC cells by VEGF or serum was unaffected by COB223 (data not shown). The activation of src phosphorylation by VEGF in HUVECs was also unaffected by COB223 (data not shown).

In the case of `CN(C)c1cccc2c(S(=O)(=O)NCCCN3CCN(CCCNC(=O)OC(C)(C)C)CC3)cccc12` [COB223, tert-Butyl 3-(4-(3-(5-(dimethylamino)naphthalene-1-sulfonamido)propyl)piperazin-1-yl) propylcarbamate], the “ERK phosphorylation induced by estrogen” value (ERK phosphorylation) is reported as “did not inhibit”, the “migration towards fetal calf serum (Boyden chamber)” value (HUVEC cells [1]) is reported as “significantly inhibited” and the EC50 (HMVECd cells) is reported as 25 µM. The “effect on cell proliferation” value (3T3 cells) was “no effect”, the “constitutive phosphorylation of ERK1/2 induced by oncogenic RasG12V” value (ERK1/2 phosphorylation) was “did not modify” and the cytotoxic concentrations (HUVEC cells [2]) was greater than 50 µM. The “kinase inhibition” value (VEGFR2 (KDR)) was “None of them was inhibited”.
